Key:
[1] = test system: PKA subunits; assay: Western blot of mitochondria-associated proteins, PKA subunits; assay type: cell-based, mouse; conditions: brown adipocytes, 10 μM, after 6-8 h
Description: Cells and tissues were lysed in 10 mM Tris pH 7.5, 10 mM NaCl, 1 mM EDTA and 0.5% Triton X-100, supplemented with complete mini EDTA-free protease (Roche Diagnostics) and phosphatase (Cocktail 2 and 3, Sigma) inhibitors, followed by 10 second sonication. For analysis of mitochondrial proteins, mitochondria were isolated from cells by dual centrifugation, as described. Protein lysates were separated by SDS-PAGE and transferred to a nitrocellulose membrane. Transfer was confirmed by Ponceau staining (P7170, Sigma). After blocking in 5% milk, 0.1% Tween-20 in Tris-buffered saline (TBS), primary antibody was incubated overnight at 4° C. in 5% bovine serum albumin and 0.1% Tween-20 in TBS. Primary antibodies against ACTB (GTX109639, GeneTex), AKAP1 (5203, Cell Signaling), AKAP6 (07-087, Millipore), Cytochrome c (136F3, Cell Signaling), electron transport chain protein complexes (Total OXPHOS rodent WB antibody cocktail ab110413, Abcam), GAPDH (GTX100118, Genetex), active p38 MAPK (V1211, Promega), total p38 MAPK (8690, Cell Signaling), PGC1α (AB3242, Millipore), phospho-(Ser/Thr) PKA substrate (9621, Cell Signaling), PKA C-α (4782, Cell Signaling), PKA RII-β (ab75993, Abcam), and UCP1 (662045, Calbiochem) were used at 1:2000. […] Quantification using representative bands from the Ponceau staining was performed with ImageJ. […]

[2] = test system: PKA; assay: PKA activity ELISA, cell or tissue lysates treated 30 min; assay type: biochemical, mouse; conditions: 30 min; for PKA activity: brown adipocyte lysate
Description: PKA kinase activity was measured with an ELISA that utilized a synthetic peptide as substrate for PKA and a polyclonal antibody that recognizes the phosphorylated form of the substrate (ab139435, Abcam). PKA activity was measured in lysates from cultured brown adipocytes, mouse BAT, or liver. Cells and tissues were lysed in 20 mM MOPS, 5 mM EGTA, 2 mM EDTA, and 0.1% Triton X-100 supplemented with protease and phosphatase inhibitor as described above. Protein concentration was determined by Bradford assay and 10 μg of cells, 0.25 μg of BAT extract, or 0.5 μg of liver extract were assessed for PKA activation according to the manufacturer's instruction, with minor changes. Briefly, vehicle or Z160 was incubated with brown adipocyte cells overnight or with protein lysates for 30 min, followed by one wash before the primary antibody, 60 min incubation with the primary antibody, 30 min incubation with the secondary antibody, and by 10 min washing. Absorbance was measured after the substrate was added for 20-60 min, depending the intensity of the signal.

[3] = test system: NRVM; assay: Respirometry (reserve capacity) in neonatal rat ventricular myocytes; assay type: cell-based; conditions: 10 μM Z160 for 24 h following 48 h 100 μM isoproterenol
Description: Rat H9c2 cells were grown in DMEM supplemented with 10% FBS, 25 mM glucose, 1 mM pyruvate, and 2 mM glutamine Neonatal rat ventricular myocytes (NRVM) were isolated and cultured as previously described. Briefly, 2-4 day old rats were sacrificed and myocytes and fibroblasts were isolated and separated using a Percoll density gradient. Following isolation, NRVMs were plated on gelatin-coated plates in DMEM containing 10% FBS, 25 mM glucose, 1 mM pyruvate, and 2 mM glutamine The next day, FBS was replaced by 1× insulin-transferrin-selenium supplement and the cells were treated with vehicle or 10 μM Z160 for 2 days, with or without 60 μM isoproterenol or 50 μM phenylephrine.
NRVM were seeded in a Seahorse Bioscience XF96 plate and cultured for 48 h in 10% FBS. Next, cells were treated with 100 μM ISO for 48 h, followed by 24 h of 10 μM Z160. Oxygen consumption rate (OCR) was recorded in a Seahorse Bioscience XF96 analyzer before and after the sequential injection of 0.75 μM oligomycin, 0.75 μm FCCP and 0.75 μM rotenone/myxothiazol. Reserve capacity was calculated as the difference between basal respiration and FCCP response.

COc1ccc(NC(=O)CSc2nc3ccccc3c(=O)[nH]2)c(OC)c1 [Z160]
mitochondrial association of PKA subunits [1]: increased mitochondrial association
PKA activity ([2]; 25 μM): significant increase
PKA activity ([2]; 50 μM): significant increase
PKA activation ([2]; mouse BAT extract, 25 μM): stimulated PKA activation
PKA activation ([2]; mouse liver extract, 25 μM): stimulated PKA activation
effect on isoproterenol-induced reduction in reserve capacity [3]: prevented the ISO-induced reduction in reserve capacity

— patent US12661355B2, “Compounds and methods for inducing UCP1 expression” (The Regents of the University of California, priority 2020, dated 2026)
